Here are results for 20 molecules from article PMC9490236, “Accurate de novo design of membrane-traversing macrocycles” (Cell, 2022).

The conditions of this series: PAMPA.

Where a SMILES comes first, the peptide text is derived from it. [ ]: non-standard residue; d: D form. NMeF = CN[C@@H](Cc1ccccc1)C(=O)O; dNMeF = CN[C@H](Cc1ccccc1)C(=O)O; NMeL = CN[C@@H](CC(C)C)C(=O)O; dNMeL = CN[C@H](CC(C)C)C(=O)O; NMeNle = CCCC[C@H](NC)C(=O)O; NMeV = CN[C@H](C(=O)O)C(C)C; Nle = CCCC[C@H](N)C(=O)O; dNMeA = CN[C@H](C)C(=O)O

`CC[C@@H](C)[C@H]1NC(=O)[C@@H](CC(C)C)N(C)C(=O)[C@@H]2CCCN2C(=O)[C@H]([C@@H](C)CC)NC(=O)[C@H]([C@@H](C)CC)N(C)C(=O)[C@@H](CC(C)C)NC(=O)[C@@H](C(C)C)N(C)C(=O)[C@H]2CCCN2C(=O)[C@@H](C(C)C)NC(=O)[C@@H]2CCCN2C(=O)[C@H]([C@@H](C)CC)NC1=O` (single isomer, unassigned) [Design D11.23.p1, DVAL DPRO *DVAL DLEU *ILE ILE PRO *DLEU DILE ILE PRO] showed a PAMPA_Papp_Avg of 2.70E-06, a PAMPA_R1 of 1.22E-06 and a PAMPA_R3 of 5.23E-06.

Consider `CC(C)C[C@@H]1NC(=O)[C@@H](Cc2ccccc2)NC(=O)[C@@H]2CCCN2C(=O)[C@H]2CCCN2C(=O)[C@@H]2CCCN2C(=O)[C@H](C)NC(=O)[C@H](Cc2ccccc2)N(C)C(=O)[C@H]2CCCN2C(=O)[C@@H](CC(C)C)NC(=O)[C@@H](C(C)C)NC1=O` [Design D10.54, DVAL DLEU DPRO *PHE ALA PRO DPRO PRO DPHE LEU] (cyclo([dF]L[dV][dL][dP][NMeF]AP[dP]P)), for which the PAMPA_Papp_Avg entry is “BQL”, the PAMPA_R1 result is given as “BQL” and the PAMPA_R3 result is given as “BQL”.

For the molecule `CC[C@H](C)[C@@H]1NC(=O)[C@H]2CCCN2C(=O)[C@H](C(C)C)NC(=O)[C@H](C(C)C)N(C)C(=O)[C@@H](C(C)C)NC(=O)[C@H](C(C)C)NC(=O)[C@H]2CCCN2C(=O)[C@@H]2CCCN2C(=O)[C@H](C)NC(=O)[C@@H](CC(C)C)N(C)C(=O)[C@H]2CCCN2C1=O` [Design D11.8, PRO DPRO VAL DVAL *VAL VAL DPRO ILE DPRO *DLEU ALA] (cyclo(AP[dP]V[dV][NMeV]V[dP]I[dP][dNMeL])), the PAMPA_Papp_Avg result is “BQL”, the PAMPA_R1 entry was “BQL” and the PAMPA_R3 entry is “BQL”.

As for `CC[C@H](C)[C@@H]1NC(=O)[C@H]2CCCN2C(=O)[C@@H](CC(C)C)N(C)C(=O)[C@H](CC(C)C)NC(=O)[C@@H](C)N(C)C(=O)[C@H]2CCCN2C(=O)[C@@H](CC(C)C)NC(=O)[C@@H](C(C)C)NC(=O)[C@H](CC(C)C)NC(=O)[C@@H](C)NC(=O)[C@@H](Cc2ccccc2)NC(=O)[C@H]2CCCN2C1=O` [Design D12.2, ILE DPRO DPHE DALA LEU DVAL DLEU DPRO *DALA LEU *DLEU DPRO] (cyclo(I[dP][dF][dA]L[dV][dL][dP][dNMeA]L[dNMeL][dP])), the PAMPA_Papp_Avg entry was “BQL”, the PAMPA_R1 result is recorded as “BQL” and the PAMPA_R3 result was “BQL”.

`CC[C@H](C)[C@@H]1NC(=O)[C@@H](CC(C)C)NC(=O)[C@H](CC(C)C)NC(=O)[C@H]2CCCN2C(=O)[C@@H]2CCCN2C(=O)[C@H]([C@@H](C)CC)NC(=O)[C@@H](CC(C)C)N(C)C(=O)[C@@H](CC(C)C)N(C)C1=O` [Design D8.9, ILE *DLEU *DLEU ILE PRO DPRO LEU DLEU] (cyclo(IP[dP]L[dL]I[dNMeL][dNMeL])): the PAMPA_Papp_Avg result was “BQL”, the PAMPA_R1 entry is listed as “BQL” and the PAMPA_R3 entry is listed as “BQL”.

As to `CC(C)[C@@H]1C(=O)N[C@@H](Cc2ccccc2)C(=O)N2CCC[C@H]2C(=O)N(C)[C@H](Cc2ccccc2)C(=O)N[C@H](C)C(=O)N2CCC[C@H]2C(=O)N1C` (single isomer, unassigned) [Design D6.8.p2, *DPHE DALA PRO *DVAL PHE PRO], the PAMPA_Papp_Avg came to 1.77e-06 cm/s, the PAMPA_R1 was 1.92e-06 cm/s and the PAMPA_R3 came out at 1.94e-06 cm/s.

Turning to `CC(C)C[C@H]1NC(=O)[C@H]2CCCN2C(=O)[C@@H]2CCCN2C(=O)[C@@H](Cc2ccccc2)NC(=O)[C@@H](C(C)C)NC(=O)[C@H](CC(C)C)N(C)C(=O)[C@@H](Cc2ccccc2)NC1=O` (single isomer, unassigned) [Design D7.7.p2, PRO DPRO DLEU DPHE *LEU DVAL DPHE], the PAMPA_Papp_Avg is 9.06e-06 cm/s, the PAMPA_R1 was determined as 7.93e-06 cm/s and the PAMPA_R3 was 1.17e-05 cm/s.

“DPRO PRO *DLEU DALA PRO *DLEU ALA *GLY *DVAL DPHE [Design D10.7]”: the PAMPA_Papp_Avg entry is “BQL”, the PAMPA_R1 result is “BQL” and the PAMPA_R3 result is “BQL”.

`CC[C@H](C)[C@@H]1NC(=O)[C@@H]2CCCN2C(=O)[C@H](C)NC(=O)[C@@H](Cc2ccccc2)N(C)C(=O)[C@H](C)NC(=O)[C@@H]2CCCN2C(=O)[C@@H](Cc2ccccc2)N(C)C(=O)[C@H](Cc2ccccc2)N(C)C(=O)[C@H](CC(C)C)N(C)C(=O)[C@@H](C(C)C)NC1=O` [Design D10.52, ILE DVAL *LEU *PHE *DPHE PRO ALA *DPHE ALA PRO] (cyclo(API[dV][NMeL][NMeF][dNMeF]PA[dNMeF])): the PAMPA_Papp_Avg entry is recorded as “BQL”, the PAMPA_R1 entry is given as “BQL” and the PAMPA_R3 entry was “BQL”.

On to `CC[C@@H](C)[C@H]1NC(=O)[C@@H](C)NC(=O)[C@@H](CC(C)C)NC(=O)[C@@H](Cc2ccccc2)NC(=O)[C@@H]2CCCN2C(=O)[C@@H]2CCCN2C(=O)[C@@H](CC(C)C)N(C)C(=O)[C@@H](C)N(C)C(=O)[C@@H](CC(C)C)NC(=O)[C@H](CC(C)C)NC(=O)[C@@H](Cc2ccccc2)NC1=O` [Design D11.18, DALA DILE DPHE LEU DLEU *DALA *DLEU PRO PRO DPHE DLEU] (cyclo(L[dL][dNMeA][dNMeL]PP[dF][dL][dA][dI][dF])), for which the PAMPA_Papp_Avg entry is on record as “BQL”, the PAMPA_R1 result is on record as “BQL” and the PAMPA_R3 result is given as “BQL”.

The molecule `CC(C)C[C@@H]1C(=O)N(C)[C@@H](Cc2ccccc2)C(=O)N[C@@H](C(C)C)C(=O)N2CCC[C@H]2C(=O)NCC(=O)N2CCC[C@H]2C(=O)N(C)[C@H](CC(C)C)C(=O)N[C@@H](C(C)C)C(=O)N[C@H](CC(C)C)C(=O)N1C` (single isomer, unassigned) [Design D9.43.p2, *DLEU VAL DLEU *DLEU *PHE VAL PRO GLY PRO] registered a PAMPA_Papp_Avg of 3.30E-06, a PAMPA_R1 of 3.34E-06 and a PAMPA_R3 of 3.77E-06.

In the case of `CC(C)C[C@H]1C(=O)N2CCC[C@@H]2C(=O)N[C@@H](Cc2ccccc2)C(=O)N2CCC[C@H]2C(=O)N[C@H](C(C)C)C(=O)N[C@H](Cc2ccccc2)C(=O)N1C` (single isomer, unassigned) [Design D6.9.p2, DVAL DPHE *LEU DPRO PHE PRO], the PAMPA_Papp_Avg turned out to be 6.77e-06 cm/s, the PAMPA_R1 stood at 6.03e-06 cm/s and the PAMPA_R3 worked out at 8.48e-06 cm/s.

As to `CC(C)C[C@@H]1NC(=O)[C@H](C(C)C)NC(=O)[C@@H](C)NC(=O)[C@H](C)NC(=O)[C@@H]2CCCN2C(=O)[C@H]2CCCN2C(=O)[C@@H](C)NC(=O)[C@H]2CCCN2C(=O)[C@@H]2CCCN2C1=O` [Design D9.34, PRO ALA DALA VAL LEU PRO DPRO DALA DPRO] (cyclo(A[dA]VLP[dP][dA][dP]P)), the PAMPA_Papp_Avg result is on record as “BQL”, the PAMPA_R1 result is given as “BQL” and the PAMPA_R3 result is “BQL”.

On to `CCCC[C@@H]1NC(=O)[C@H](CC(C)C)NC(=O)[C@@H]2CCCN2C(=O)[C@H]2CCCN2C(=O)[C@@H](C)NC(=O)[C@H]2CCCN2C(=O)[C@@H](CC(C)C)NC(=O)[C@@H](C)N(C)C(=O)[C@H](CC(C)C)N(C)C(=O)[C@@H](C)N(C)C1=O` [Design D10.40, MET *DALA *LEU *DALA DLEU DPRO DALA DPRO PRO LEU] (cyclo(L[Nle][dNMeA][NMeL][dNMeA][dL][dP][dA][dP]P)), for which the PAMPA_Papp_Avg was found to be 7.09E-07, the PAMPA_R1 amounted to 6.40E-07 and the PAMPA_R3 is reported as 6.95E-07.

Take `CC[C@@H](C)[C@H]1NC(=O)[C@H]2CCCN2C(=O)[C@@H]2CCCN2C(=O)[C@H](C(C)C)NC(=O)[C@@H](C(C)C)NC(=O)[C@@H]2CCCN2C(=O)[C@H]2CCCN2C(=O)[C@@H](C)NC1=O` [Design D8.11, DALA DPRO PRO DVAL VAL PRO DPRO DILE] (cyclo([dV]VP[dP][dI][dA][dP]P)): the PAMPA_Papp_Avg entry was “BQL”, the PAMPA_R1 entry is on record as “BQL” and the PAMPA_R3 result is listed as “BQL”.

`CC(C)C[C@H]1NC(=O)[C@@H]2CCCN2C(=O)[C@H]2CCCN2C(=O)[C@H](C(C)C)NC(=O)[C@@H](CC(C)C)NC(=O)[C@@H]2CCCN2C(=O)[C@H]2CCCN2C(=O)[C@H](C(C)C)NC1=O` (single isomer, unassigned) [Design D8.12.p2, DLEU VAL DPRO PRO DLEU VAL DPRO PRO] came in with a PAMPA_Papp_Avg of 2.00E-07, a PAMPA_R1 of 1.77E-07 and a PAMPA_R3 of 2.25E-07.

On to `CC[C@H](C)[C@@H]1NC(=O)[C@H](C)NC(=O)[C@H](CC(C)C)NC(=O)[C@@H]2CCCN2C(=O)[C@@H](C(C)C)NC(=O)[C@H](CC(C)C)NC(=O)[C@@H]2CCCN2C(=O)[C@H]2CCCN2C(=O)[C@H](C)NC(=O)[C@H](Cc2ccccc2)NC(=O)[C@@H](CC(C)C)NC(=O)[C@H]2CCCN2C1=O` [Design D12.8, PHE ALA DPRO PRO LEU DVAL PRO LEU ALA ILE DPRO DLEU] (cyclo(L[dV]PLAI[dP][dL]FA[dP]P)), for which the PAMPA_Papp_Avg result is recorded as “BQL”, the PAMPA_R1 entry is reported as “BQL” and the PAMPA_R3 result is “BQL”.

Take “PRO DPRO DALA DPHE DLEU ILE DPHE *DALA LEU PRO NLE [Design D11.14.p2]”: the PAMPA_Papp_Avg entry is listed as “BQL”, the PAMPA_R1 result was “BQL” and the PAMPA_R3 result was “BQL”.

For `CCCC[C@H]1C(=O)N[C@@H]([C@@H](C)CC)C(=O)N2CCC[C@H]2C(=O)N2CCC[C@@H]2C(=O)N[C@H](CC(C)C)C(=O)N[C@@H]([C@@H](C)CC)C(=O)N2CCC[C@@H]2C(=O)N[C@H](Cc2ccccc2)C(=O)N[C@@H](C(C)C)C(=O)N(C)[C@H](CC(C)C)C(=O)N1C` [Design D10.44, VAL *DLEU *MET ILE PRO DPRO DLEU ILE DPRO DPHE] (cyclo(IP[dP][dL]I[dP][dF]V[dNMeL][NMeNle])), the PAMPA_Papp_Avg result is “BQL”, the PAMPA_R1 entry is “BQL” and the PAMPA_R3 entry is recorded as “BQL”.

With `CC[C@@H](C)[C@H]1NC(=O)[C@H](CC(C)C)NC(=O)[C@@H](CC(C)C)NC(=O)[C@H](C(C)C)NC(=O)[C@@H]2CCCN2C(=O)[C@H](CC(C)C)N(C)C(=O)[C@@H](CC(C)C)NC(=O)[C@H](Cc2ccccc2)N(C)C(=O)[C@H]2CCCN2C1=O` [Design D9.38, DPRO *PHE DLEU *LEU PRO VAL DLEU LEU DILE] (cyclo(L[dI][dP][NMeF][dL][NMeL]PV[dL])), the PAMPA_Papp_Avg entry is “BQL”, the PAMPA_R1 result is reported as “BQL” and the PAMPA_R3 entry is recorded as “BQL”.
